Results published in patent US20040019432A1, “System and method for integrated computer-aided molecular discovery” (priority 2002, published 2004).

Target: T1, thrombin (Bos taurus, UniProt P00735)
T1 construct: purchased Sigma T-3399
Test: biological assay for thrombin inhibitory activity (fluorogenic substrate)
Assay type: biochemical
Conditions: for inhibition at 50 µM: test probe concentration 50 μM; for inhibition at 100 µM: test probe concentration 100 μM
Protocol: The biological assay for thrombin inhibitory activity is detailed below. To Costar® 96-well black fluorescence plate wells is added 70 microliters of assay buffer, followed by 10 microliters of 1 millimolar substrate solution. Test probe (10 microliters in 30% DMSO) is then added to wells according to the desired concentrations for the assay. The mixture is incubated at 37° C. for 5 minutes, followed by addition of 10 microliters of thrombin (100 micrograms/mL in assay buffer), to make a final assay volume of 100 microliters. The plate is mixed gently and incubated 15 minutes at 37° C. Stop buffer (100 microliters) is added, and the plate is read by detecting fluorescence intensity (Excitation at 360 nm, Emission at 460 nm). Percent inhibition of test compound is calculated by comparison with control wells. “Assay buffer” is composed of 100 mM KH2PO4, 100 mM Na2HPO4, 1 mM EDTA, 0.01% BRIJ-35, and 1 mM dithiothreitol (added fresh on the day assay is preformed). “Stop buffer” is composed of 100 mM Na—O(O)CCH2Cl and 30 mM sodium acetate which is brought to pH 2.5 with glacial acetic acid. Thrombin was purchased from Sigma (cat #T-3399). Thrombin substrate III fluorogenic was purchased from ICN (cat #195915). Sodium acetate, dithiothreitol, and Brij-35 were purchased from Sigma. Sodium monochloroacetate was purchased from Lancaster 223-498-3. Glacial acetic acid was purchased from Alfa Aesar (cat # 33252). Thrombin was stored at −20° C. Thrombin substrate fluorogenic was stored at −20° C. (5 mM in DMSO).

inhibition at 50 µM [%] | inhibition at 100 µM [%] | SMILES
10 to 39 | 40 to 74 | COc1ccc(CNC(=O)c2cc(Cl)ccc2NC(=O)c2n[nH]c3ccccc23)cc1OC [Example B1]
10 to 39 | 40 to 74 | CCCCN(CCCC)CCCNC(=O)c1cc(Cl)ccc1NC(=O)c1n[nH]c2ccccc12 [Example B2]
10 to 39 | 40 to 74 | CC(NC(=O)C(NC(=O)c1n[nH]c2ccccc12)C1CCNCC1)c1ccccc1 (stereo not drawn) [Example B3]
